The values that follow are results of earlier work, collected in patent EP0398588A1, “Macrolide antibiotics” (ELI LILLY AND COMPANY, priority 1989, dated 1990).

The series deals with rats. Particulars: rat, in vivo, po.

For the compound `O=C1C[C@@H]2OCC=C3CN4CC[C@]56c7ccccc7N1[C@H]5[C@H]2[C@H]3C[C@H]46` [strychnine], the MLD is given as 5 mg/kg.
